In patent publication US10801065B2, “Methods of determining levels of exposure to radiation and uses thereof” (priority 2015, dated 2020):
Several values for one entry are separate records, joined by “and”; a condition that tells them apart may be missing. Equal values may be shown once.

Columns and labels:
Format in all cases: in vivo
lethally-irradiated mice = test: Kaplan-Meier survival of mice given amifostine before lethal total body irradiation
Description: C57BL/6J male mice (10 weeks old) were obtained from Jackson Labs (Bar Harbor, Me.) and the mice were used in the experiments at an age of 12-13 weeks. Animals were exposed to total body irradiation in an irradiation pie cage (Braintree Scientific, Braintree, Mass.) at various doses. Irradiation was performed using a 137Cs source (Gamma Cell® 40 Exactor, Best Theratronics, Ottawa, Ontario).
Saline or amifostine was given to mice intraperitoneally at 250 mg/kg body weight 24 hours prior to 0 Gy- or 8 Gy-total body irradiation in a first set of experiments. In a second set of experiments, mice were left untreated or mice were administered saline or 200 mg/kg amifostine 45 minutes prior to 0 Gy- or 8.5 Gy-total body irradiation. Serum was collected from all mice at 24 hours after irradiation or a time point in the non-irradiated mice that would correspond to 24 hours after irradiation in the treated mice.
Validation with real-time qPCR: One-way ANOVA was used to confirm global significance. Dunnett's post-hoc testing procedure was used to compare miRNA levels in the irradiated+saline-group against three other experimental groups. Univariate comparisons were performed using the Student's t-test or the Student's t-test for paired samples. Pearson's correlation coefficient was used for correlation testing. Survival analysis was performed using the log-rank (Mantel-Cox) test.

[1] = test system: HuCD34+ humanized NSG mice, 4 Gy to 4.5 Gy total body irradiation; test: Peripheral blood CBC at euthanasia in irradiated humanized mice given amifostine; settings: TBI + Amifostine
Description: Blood collection for CBCs (100 μL) was performed by retro-orbital bleeding after anesthesia in EDTA-coated tubes (BD Biosciences, San Jose, Calif.). CBCs were recorded with a Hemavet 950 FS hematology analyzer (Drew Scientific, Dallas, Tex.).
HuCD34^+ “humanized” NSG mice were obtained from Jackson Labs, Bar Harbor, Me. These mice were generated by irradiating each mouse at 1.4 Gy to deplete their bone marrow and injecting each mouse with CD34^+ human HSC. Each mouse was tested for engraftment of human CD45^+ cells and murine CD45^+ cells at 12 weeks following transplantation. Prior to the experiments described herein, the presence of human CD45^+ cells was confirmed in the peripheral blood and bone marrow from untreated control mice using an anti-human CD45 FITC antibody.
The HuCD34^+ mice were treated with saline or amifostine (200 mg/kg of body weight 45 min-1 hr before radiation exposure) and were subsequently treated with 4 Gy to 4.5 Gy of total body irradiation, or were left untreated. Following these treatments, total bone cellularity and the levels of serum miRNAs were determined in the mice. Both CD45 staining of peripheral blood and engraftment analysis of bone marrow was performed when animals became moribund (between 9-14 days after total body radiation) and were sacrificed. The mice were irradiated at approximately 12 weeks after initial assessment of engraftment.

[2] = test system: serum miRNAs miR-187-3p, miR-194-5p, miR-27a-3p, miR-30a-3p, miR-30c-5p; test: Serum miRNA levels (qPCR) in mice given amifostine before total body irradiation; settings: amifostine 250 mg/kg 24 hours prior to 0 Gy or 8 Gy-total body irradiation; sera 24 hours post-irradiation
Description: Peripheral blood was collected by retro-orbital bleeding after anesthesia. Up to 200 μL of blood was collected in DNAse/RNAse-free Eppendorf tubes and incubated at room temperature for 2 hours to allow clotting. Blood samples were then centrifuged in an Eppendorf 5415C centrifuge at 14000 RPM (15996 g) for 5 minutes at room temperature.
Total RNA was isolated from serum samples by using the miRCURY™ RNA Isolation Kit—Biofluids from 50 μL mouse serum as per the manufacturer's manual. […] Total RNA was eluted in 50 μL of RNAse-free H2O and stored at −80° C. Per the manufacturer's recommendations, input volumes for serum RNA were optimized for the cDNA synthesis reaction. cDNA was synthesized in 10 μL reactions using the Universal cDNA Synthesis Kit II and was diluted 50-fold in RNAse/DNAse-free H2O for use in quantitative PCR. The reagents for RNA extraction and cDNA synthesis were obtained from Exiqon (Vedbaek, Denmark).
Diluted cDNA was subjected to quantitative PCR analysis in Pick-N-Mix plates designed in a 96-well format. […] All reagents used for quantitative PCR were obtained from Exiqon (Vedbaek, Denmark). […]

[3] = test system: HuCD34+ humanized NSG mice, 4 Gy to 4.5 Gy total body irradiation; test: Bone marrow cellularity, human CD45 positive cells and CFU-Cs in irradiated humanized mice given amifostine; settings: amifostine 200 mg/kg prior to 4.0 Gy or 4.5 Gy total body irradiation vs saline
Description: Bone marrow was harvested as per protocols described in Parmar et al. (Stem Cells 28:1186-1195, 2010). Briefly, animals were dissected to isolate the femurs and tibia from the mouse hind limb. The extracted bones were flushed with a 23-gauge needle using Hank's Balanced Salt Solution (HBSS, Life Technologies, Grand Island, N.Y.) supplemented with 2% fetal bovine serum (FBS) and 1% 10 mM HEPES (Life Technologies) to obtain bone marrow. The cells were then passed through an 18 gauge needle to obtain a single cell suspension. The bone marrow mononuclear cell count (BM-MNC) was determined by counting cells using 3% acetic acid with methylene blue solution (Stem Cell Technologies, Vancouver, British Columbia). For LKS (lineage, cKit, Sca-1) staining to visualize hematopoietic progenitor cells (HPCs) and hematopoietic stem cells (HSCs), whole bone marrow was stained with biotinylated anti-lineage cocktail (anti-Mac1, Gr-1, CD3e, B220, and Ter119), APC-conjugated anti-cKit (clone 2B8), and PECy7-conjugated anti Sca-1 (clone D7) antibodies. Following primary antibody staining, the cells were washed and incubated in PE-conjugated streptavidin secondary antibody to visualize lineage-positive cells. All primary and secondary antibodies were obtained from BD Biosciences (San Jose, Calif.). The samples were acquired using an LSR Fortessa instrument (Becton Dickinson, Franklin Lakes, N.J.) and data was analyzed using FlowJo software (TreeStar, Ashland, Oreg.).
To assess colony-forming ability, whole bone marrow isolated after flushing mouse femurs and tibiae was plated in 12-well plates at a density of 20,000 to 100,000 cells/well in methylcellulose medium (Methocult CF M3434, Stem Cell Technologies, Vancouver, British Columbia) containing recombinant murine IL-3, recombinant murine IL-6, and recombinant human erythropoietin. Cells from all samples were plated in triplicates and incubated at 37° C. in 5% CO2 for 7 days at which time hematopoietic colonies formed (colony-forming units in culture, CFU-Cs) were scored. […]

SMILES: NCCCNCCSP(=O)(O)O [amifostine]
- survival (lethally-irradiated mice; amifostine 200 mg/kg 45 minutes prior to 8.5 Gy-total body irradiation vs saline): prolonged survival
- improvement in survival (lethally-irradiated mice; amifostine 250 mg/kg intraperitoneally 24 hours prior to 8 Gy-total body irradiation vs saline, n=8 per group, p=0.0452): 50%
- HCT, CBC at euthanasia ([1]; group Avg): 10.93%
- Hb, CBC at euthanasia ([1]; group Avg): 4.27 g/dL
- PLT, CBC at euthanasia ([1]; group Avg): 104.33 K/uL
- RBC, CBC at euthanasia ([1]; group Avg): 2.37 M/uL
- WBC, CBC at euthanasia ([1]; group Avg): 1.22 K/uL
- HCT, CBC at euthanasia ([1]; individual mice (# 8, 9, 13)): 17.00% and 11.00% and 4.80%
- Hb, CBC at euthanasia ([1]; individual mice (# 8, 9, 13)): 4.80 g/dL (2×) and 3.20 g/dL
- PLT, CBC at euthanasia ([1]; individual mice (# 8, 9, 13)): 213 K/uL and 44 K/uL and 56 K/uL
- RBC, CBC at euthanasia ([1]; individual mice (# 8, 9, 13)): 2.55 M/uL and 1.65 M/uL and 2.92 M/uL
- WBC, CBC at euthanasia ([1]; individual mice (# 8, 9, 13)): 1.28 K/uL and 1.19 K/uL and 1.20 K/uL
- serum miRNA signature response to treatment [2]: responded to amifostine treatment only in the context of lethal radiation
- number of CFU-Cs [3]: increase
- number of human CD45 positive cells in the bone marrow [3]: increase
- total bone marrow cellularity [3]: increase
